This passage reports IC50 results from patent publication US20170114049A1, “2,5-DISUBSTITUTED CYCLOPENTANE CARBOXYLIC ACIDS FOR THE TREATMENT OF RESPIRATORY TRACT DISEASES” (BAYER PHARMA AKTIENGESELLSCHAFT, priority 2014, published 2017).

Common to all, as to format: biochemical
One assay concerns the target T1, MMP-13 (Homo sapiens, UniProt P45452).
T1 construct: purchased R&D Systems 511-MP
In words: In vitro MMP-13 inhibition test. An excerpt: (§1) The MMP-mediated amidolytic cleavage of a suitable peptide substrate leads to an increase in fluorescent light here too. The signal intensity of the fluorescent light is directly proportional to the enzyme activity. The active concentration of a test compound at which half the enzyme is inhibited (50% signal intensity of the fluorescent light) is reported as the […].
(§2) Recombinant MMP-13 (from R&D Systems, 511-MP) is chemically activated in accordance with the manufacturer's instructions using APMA. 1 μl of the test compound to be analysed (as a solution in DMSO, suitable concentrations, for example, 1 nM to 30 μM) is pipetted into 24 μl of activated enzyme (final concentration, for example, 0.1 nM) in reaction buffer (50 mM Tris/HCl pH 7.5, 10 mM CaCl2, 150 mM NaCl, 0.05% Brij®-35) in a white 384-hole microtiter plate (MTP). The enzymatic reaction is started by adding the intramolecularly quenched Mca-Pro-Leu-Gly-Leu-Dpa(Dnp)-Ala-Arg-NH2 substrate (final concentration, for example, 10 μM; R&D Systems, ES-001), so as to result in a total test volume of 50 μl. The course of the MMP-13 reaction is measured by measuring the fluorescence intensity (excitation 320 nm, emission 410 nm) over a suitable period of time (for example over 120 min at a temperature of 32° C.).

The target in a further assay is T2, mouse MMP-8 (Mus musculus, UniProt O70138).
T2 construct: purchased R&D Systems 2904-MP
T2 sequence (O70138 101-465): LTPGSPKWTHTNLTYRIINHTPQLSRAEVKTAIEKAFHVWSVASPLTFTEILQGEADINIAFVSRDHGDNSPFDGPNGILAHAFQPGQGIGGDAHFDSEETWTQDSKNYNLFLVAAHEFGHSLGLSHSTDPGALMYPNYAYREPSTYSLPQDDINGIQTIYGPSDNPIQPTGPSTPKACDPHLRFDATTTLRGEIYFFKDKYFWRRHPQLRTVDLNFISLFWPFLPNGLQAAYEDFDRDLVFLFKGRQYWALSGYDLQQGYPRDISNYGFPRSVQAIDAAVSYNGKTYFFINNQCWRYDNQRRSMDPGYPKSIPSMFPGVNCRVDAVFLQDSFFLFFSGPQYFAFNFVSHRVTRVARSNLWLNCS
Put plainly: In vitro mouse MMP-8 inhibition test.

For another assay, the target named is T3, MMP-14 (Homo sapiens, UniProt P50281).
T3 construct: purchased R&D Systems 918-MP
In words: In vitro MMP-14 inhibition test.
From the text: as §1
(§3) Recombinant MMP-14 (from R&D Systems, 918-MP) is enzymatically activated in accordance with the manufacturer's instructions using recombinant furin (from R&D Systems, 1503-SE). 1 μl of the test compound to be analysed (as a solution in DMSO, suitable concentrations e.g. 1 nM to 30 μM) is pipetted into 24 μl of activated enzyme (final concentration e.g. 0.5 nM) in reaction buffer (50 mM Tris/HCl pH 7.5, 10 mM CaCl2, 150 mM NaCl, 0.05% Brij®-35) in a white 384-hole microtiter plate (MTP). The enzymatic reaction is started by adding the intramolecularly quenched Mca-Lys-Pro-Leu-Gly-Leu-Dpa(Dnp)-Ala-Arg-NH2 substrate (final concentration, for example, 5 μM; R&D Systems, ES-010), so as to result in a total test volume of 50 μl. The course of the MMP-14 reaction is measured by measuring the fluorescence intensity (excitation 320 nm, emission 410 nm) over a suitable period of time (for example over 120 min at a temperature of 32° C.).

A further assay has as its target T4, MMP-1 (Homo sapiens, UniProt P03956).
T4 construct: purchased R&D Systems 901-MP
T4 sequence (P03956 100-469): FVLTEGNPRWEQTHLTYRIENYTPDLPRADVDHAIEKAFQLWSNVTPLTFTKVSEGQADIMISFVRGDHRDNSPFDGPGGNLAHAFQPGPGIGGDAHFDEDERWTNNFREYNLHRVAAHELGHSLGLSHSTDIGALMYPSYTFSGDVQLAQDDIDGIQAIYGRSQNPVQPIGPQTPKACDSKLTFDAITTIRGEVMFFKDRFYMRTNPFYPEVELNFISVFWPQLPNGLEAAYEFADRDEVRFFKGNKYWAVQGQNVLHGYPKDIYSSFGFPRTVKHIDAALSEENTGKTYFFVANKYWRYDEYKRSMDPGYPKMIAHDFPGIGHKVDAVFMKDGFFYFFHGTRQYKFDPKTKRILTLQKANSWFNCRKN
In words: In vitro MMP-1 inhibition test.
From the text: as §1
as §2, with “MMP-1” for “MMP-13”, “901-MP)” for “511-MP)”, “2” for “0.1”

In assay [1] the target is T5, human macrophage elastase (HME/hMMP-12) (Homo sapiens, UniProt P39900).
T5 construct: 0.5 nM HME; purchased R&D Systems 917-MP
T5 sequence (P39900 106-470): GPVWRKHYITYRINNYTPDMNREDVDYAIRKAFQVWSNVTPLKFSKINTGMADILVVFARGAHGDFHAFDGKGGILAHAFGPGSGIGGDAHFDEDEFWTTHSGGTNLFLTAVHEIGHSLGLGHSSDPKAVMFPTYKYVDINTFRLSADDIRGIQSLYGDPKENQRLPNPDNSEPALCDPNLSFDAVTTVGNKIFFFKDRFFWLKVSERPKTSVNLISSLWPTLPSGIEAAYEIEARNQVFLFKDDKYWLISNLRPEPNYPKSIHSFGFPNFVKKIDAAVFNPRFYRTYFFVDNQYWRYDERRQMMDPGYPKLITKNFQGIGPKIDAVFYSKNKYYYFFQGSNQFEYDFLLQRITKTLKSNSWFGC
Put plainly: In vitro HME inhibition test in the presence of serum albumin (BSA) in the reaction buffer. Conditions: presence of serum albumin (BSA) 2% (w/w). An excerpt: This test corresponds to the standard HME inhibition test described above, except using a modified reaction buffer. This reaction buffer additionally contains bovine serum albumin (BSA, fatty acid-free, A6003, from Sigma-Aldrich) of final concentration 2% (w/w), which corresponds to about half the physiological serum albumin content.

The next assay deals with T6, MMP-16 (Homo sapiens, UniProt P51512).
T6 construct: purchased R&D Systems 1785-MP
T6 sequence (P51512 120-607): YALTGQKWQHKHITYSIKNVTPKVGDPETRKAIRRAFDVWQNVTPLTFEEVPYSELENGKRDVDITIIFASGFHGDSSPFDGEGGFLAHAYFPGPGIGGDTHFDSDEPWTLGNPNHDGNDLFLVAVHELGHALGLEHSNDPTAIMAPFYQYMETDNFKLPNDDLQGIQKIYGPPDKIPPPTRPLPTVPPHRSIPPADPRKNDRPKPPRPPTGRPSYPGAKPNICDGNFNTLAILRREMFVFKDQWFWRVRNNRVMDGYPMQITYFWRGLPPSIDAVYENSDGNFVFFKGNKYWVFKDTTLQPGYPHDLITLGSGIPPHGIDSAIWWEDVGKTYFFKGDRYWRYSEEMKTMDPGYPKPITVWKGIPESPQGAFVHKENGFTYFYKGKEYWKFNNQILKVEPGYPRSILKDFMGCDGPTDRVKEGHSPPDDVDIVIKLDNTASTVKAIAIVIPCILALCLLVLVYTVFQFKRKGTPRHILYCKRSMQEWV
Put plainly: In vitro MMP-16 inhibition test.
From the text: as §1
as §3, with “MMP-16” for “MMP-14”, “1785-MP)” for “918-MP)”, “1” for “0.5”

pIC50: −log10 of the molar value. Some results are limits rather than exact numbers.

Regarding `Cc1ccc2nnn(C[C@H]3CC[C@@H](C(=O)c4ccc(OCCC5CCOCC5)cc4)[C@@H]3C(=O)O)c(=O)c2c1` (single isomer, unassigned) [Example 20, (+)-(1RS,2SR,5RS)-2-[(6-Methyl-4-oxo-1,2,3-benzotriazin-3(4H)-yl)methyl]-5-{4-[2-(tetrahydro-2H-pyran-4-yl)ethoxy]benzoyl}cyclopentanecarboxylic acid], the pIC50 was 6.77 against MMP-13; 7.34 against mouse MMP-8; 6.00 against MMP-14; below 4.40 against MMP-1; 7.91 in assay [1]; 5.51 at MMP-16.

Take `O=C(O)[C@@H]1[C@@H](Cn2nnc3ccccc3c2=O)CC[C@H]1C(=O)c1ccc(OCCC2CCOCC2)cc1` (single isomer, unassigned) [Example 5, (+)-(1RS,2SR,5RS)-2-[(4-Oxo-1,2,3-benzotriazin-3(4H)-yl)methyl]-5-{4-[2-(tetrahydro-2H-pyran-4-yl)ethoxy]benzoyl}cyclopentanecarboxylic acid]: the pIC50 against MMP-13 is 7.17; at mouse MMP-8, 7.27; against MMP-14, 6.60; on MMP-1, below 4.40; in assay [1] it was 8.39; at MMP-16, 6.03.

The pIC50 is the IC50 on a negative log10 scale, so that one unit is a factor of ten.
